According to patent publication US9795585B2, “Methods of using L-butylphthalide for the prevention and treatment of cerebral ischemia disease” (priority 2004, dated 2017):
Several values for one entry are separate records, joined by “and”; a condition that tells them apart may be missing. Equal values may be shown once.

What was measured:
[1] = system: cerebral ischemia-reperfusion rats; assay: Behavioral disorder and cerebral infarct area in cerebral ischemia-reperfusion rats (MCAO by nylon suture, 1.5 h); type: in vivo, male Wistar rats; details: for neurological deficit scores (effect in words) / potency on neurological deficit scores compared among l, dl and d-NBP: 24 hours after intravenous injection; for reduction of cerebral infarct area / ED50 (cerebral infarct area): i.v., vs model control group; for cerebral infarct area (effect in words): intravenous administration, effect increases with dose
Text: Experimental Animal: The same as Example 1
Experimental Equipments: The same as Example 7
Experimental Methods: The rats were anesthetized, and fixed in lateral decubitus position. Under the operating microscope, a midline neck skin incision was made to expose the left common cartotid artery. The surrounding nerves and fascia from the bifurcation of common carotid artery to the vascular of basis cranii were removed.
The internal carotid artery was then separated and carefully separated free from vagus nerve. Pterygopalatine artery was ligated at the root of the internal carotid artery. A 6# needle for injection containing 3# nylon suture (diameter of 0.285 mm) was punctured into the free end of the external carotid artery, advancing the nylon suture into the blood vascular. The needle was carefully withdrawn, and the nylon suture was guided into the internal carotid artery from the distal end of the external carotid artery up till to Willis ring, so as to effectively block the middle cerebral artery.
Depending on the body weight, the distance from the inserted nylon suture to the bifurcation of common carotid artery was 18 to 20 mm. The free end of the external carotid artery and the nylon suture therein were ligated together, in order to prevent bleeding. The muscle and the skin were then sutured layer by layer, and penicillin was dropped to prevent infection. To effectively block the middle cerebral artery, the tip of the nylon suture was made round by burning with the flame, and coated with 0.1% of poly-L-lysine. The nylon suture was baked in a 60° C. oven for 1 hour.
Due to the ability of poly-L-lysine to binding the cell and the protein to the plastic surface, and thus allow the negative charged nylon suture changing into a positive charged one and attract the anion ionic part of the endothelial cell, the nylon suture was closely bond to the endothelial surface, so as to prevent the leakage of the blood from the surrounding of the suture. Only the internal carotoid artery was separated from the animals of pseudo-operation group.
At 1.5 hours after the initiation of MCAO, the nylon suture within the lumen of the internal carotoid artery was carefully withdrawn, and the internal carotoid artery was allowed to reperfusion. The rats were then placed back into the cage.

[2] = system: cerebral edema induced by cerebral artery ligation in rats; assay: Cerebral edema induced by ligation of right middle cerebral artery; type: in vivo, male Wistar rats
Description: Experimental Animals: the same as Example 1. Experimental Equipments: Oxygen analyzer. Experimental Methods: Cerebral edema was induced by the ligation of right middle cerebral artery of rats. After 15 minutes, dl-, d-, and l-NBP (40 and 80 mg/kg) were orally administered. The rats were sacrificed after 24 hours. The forebrain was removed, and the cerebral hemispheres on the left and right side were weighed. Dry weight was obtained by baking for 24 hours under 100° C. The weight of water in the brain tissue was thus calculated by subtracting of dry weight from wet weight. Then, the tissues was nitrified for 4 hours, and pH was adjusted by using HCl. Next, the ion selective electrode was connected onto the oxygen analyzer, and the concentrations of Na^+ and K^+ in the brain tissue were measured.

[3] = system: ischemic brain of decapitated mice; assay: Ischemic cerebral metabolism of energy induced by decapitation of mice; type: in vivo, KunMing mice; details: NBP 50 and 100 mg/kg oral, sodium Phenobarbital 225 mg/kg ip.; decapitated 30 minutes after administration; 15 seconds ischemia; vs control group
Description: Experimental Animals: KunMing mice.
Test drug: injectable L-butylphthalide was formulated into an emulsion with Tween-80.
Experimental Methods: KunMing mice of 10 to 22 g were divided into 8 groups with 10 mice per group. dl-, d-, and l-NBP (50 and 100 mg/kg/d), sodium Phenobarbital (225 mg/kg ip.) and the vehicle were orally administered. Thirty minutes after administration, the mice were decapitated.
The time between the decapitation and homogenation, which was 15 seconds, was regarded as cerebral ischemic time. Centrifugation and isolation were conducted by the method of Folbergrova, and the contents of lactic acid, ATP and PCr were determined by enzymological method.

[4] = system: focal cerebral ischemia in rats; assay: Memory disorder induced by focal cerebral ischemia (shuttle box, artery ligation by method of Tamura); type: in vivo, male Wistar rats; details: 15 and 30 mg/kg oral 15 min after operation; observed after 24 hours; vs vehicle control
Description: Experimental Animal: The same as Example 1. Experimental Equipment: Shuttle box. Experimental Methods: • 1. Rats were trained to acquire learning and memory; • 2. Artery ligation: Artery ligation was conducted on rats according to the method of Tamura. After 24 hours, the experiment of learning as in step (1) was repeatedly conducted on rats. • 3. Grouping and administration: the rats were divided into 9 groups, which were normal group, pseudo-operation group, ischemia control group, and groups of dl-, d-, and l-NBP (15 and 30 mg/kg). The rats were orally administered at 15 min after the operation, and the changes of latency of active and passive avoidance response were observed after 24 hours.

[5] = system: ischemic region (corpus striatum) of rats with blocked cerebral artery; assay: Focal cerebral blood flow after ligation of cerebral artery (method of Tamura); type: in vivo, Male wistar rats
Description: Experimental Animals: Male wistar rats.
Experimental Equipments: SXP operating microscope, 62TZ-V model high frequency electrotome, solid positioner, Diamond Electro-Tech chemical microsensor 1231, two channel physiological parameter recorder.
Experimental Methods: • (1) dl-, d-, and l-NBP (15 and 30 mg/kg) and the vehicle were orally administered to the normal rats, and the changes of cerebral blood flow at different time after the administration were measured. • (2) ligation of cerebral artery was conducted on rats according to the method of Tamura. Oral administration was performed at 10 min after the operation. The rats were divided into 9 groups, which were normal group, pseudo-operation group, vehicle control group, and groups of dl-, d-, and l-NBP (15 and 30 mg/kg).

[6] = system: cerebral injury-induced cerebral ischemia in rats; assay: Neural symptoms induced by cerebral injury in rats; type: in vivo, male Wistar rats; details: 50 mg/kg oral 5 minutes after cerebral injury; scored after 24 hours; vs vehicle control
Description: Experimental Animals: male Wistar rats
Experimental Methods: Cerebral injury in rats was caused by allowing a cone-shaped metal object weighing 220 g to freely fall from a position of 30 cm height and to strike the skull cap behind the left coronal suture. dl-, d-, and l-NBP (50 mg/kg) and the vehicle (control group) were orally administered after 5 minutes, and the behavioral changes were scored after 24 hours.

[7] = 40 and 80 mg/kg oral 15 minutes after ligation, sacrificed after 24 hours

SMILES | neurological deficit scores (effect in words) [1] | potency on neurological deficit scores compared among l, dl and d-NBP [1] | reduction of cerebral infarct area ([1]; first of three doses) | ED50 (cerebral infarct area) [1] | cerebral infarct area (effect in words) [1] | reduction of cerebral infarct area ([1]; second of three doses) | reduction of cerebral infarct area ([1]; third of three doses) | content of K+ in the brain [2, 7] | content of Na+ in the brain [2, 7] | content of water in the brain [2, 7] | content of ATP in the brain [3] | content of PCr in the brain [3] | content of lactic acid in the brain [3] | times of active avoidance [4] | neural symptoms (behavioral changes scored) [6] | also measured
CCCCC1OC(=O)c2ccccc21 (racemic) [dl-NBP, butylphthalide] | improvement | no significant difference | 37.9% and 34.8% | 5.5 mg/kg and 5.7 mg/kg | significantly reduce | 48.5% and 46.5% | 59.2% and 60.9% | no significant effect | no significant effect | no significant effect | no such significant effect | no such significant effect | no such significant effect | not observed | no significant effect | content of Na+ in the brain ([2]; 80 mg/kg oral, decrease seen): no statistical significance; content of water in the brain ([2]; 80 mg/kg oral, decrease seen): no statistical significance; content of K+ in the brain ([2]; 80 mg/kg oral, increase seen): no statistical significance; focal blood flow in the corpus striatum on the side of the blocked cerebral artery ([5]; 30 mg/kg oral 10 min after operation, similar increase seen): no statistical significance
CCCC[C@@H]1OC(=O)c2ccccc21 [l-NBP, L-butylphthalide] | improvement | no significant difference | 40.8% | 3.8 mg/kg | significantly reduce | 57.0% | 68.5% | increase | significantly decrease | significantly decrease | increased | increased | significantly decreased | significantly increased | significantly reduced | effect on cerebral infarct area relative to d-NBP ([1]; as calculated by ED50): about 1.5 times; focal blood flow in the corpus striatum on the side of the blocked cerebral artery ([5]; 15 and 30 mg/kg oral 10 min after operation, vs vehicle control, dose-dependent): significantly increase
